What follows are compounds tested against T1, BTK (Homo sapiens, UniProt Q06187) (assay: BTK degradation in TMD-8 cells, HTRF assay after 6 h treatment). Conditions: IC50 (DC50) of BTK degradation.
T1 construct: endogenous in cells; host or cells: TMD-8 cells
Format: cell-based
Method in brief: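 TMD-8 cells treated for 6 h with 8 compound doses in 6-fold dilution steps from a 1 mM 500× DMSO stock (0.2% DMSO), then lysed 30 min at room temperature. BTK in lysate detected by HTRF (665/620 nm) after overnight antibody incubation; DC50 from four-parameter curve fit.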

T1 sequence (Q06187 whole entry): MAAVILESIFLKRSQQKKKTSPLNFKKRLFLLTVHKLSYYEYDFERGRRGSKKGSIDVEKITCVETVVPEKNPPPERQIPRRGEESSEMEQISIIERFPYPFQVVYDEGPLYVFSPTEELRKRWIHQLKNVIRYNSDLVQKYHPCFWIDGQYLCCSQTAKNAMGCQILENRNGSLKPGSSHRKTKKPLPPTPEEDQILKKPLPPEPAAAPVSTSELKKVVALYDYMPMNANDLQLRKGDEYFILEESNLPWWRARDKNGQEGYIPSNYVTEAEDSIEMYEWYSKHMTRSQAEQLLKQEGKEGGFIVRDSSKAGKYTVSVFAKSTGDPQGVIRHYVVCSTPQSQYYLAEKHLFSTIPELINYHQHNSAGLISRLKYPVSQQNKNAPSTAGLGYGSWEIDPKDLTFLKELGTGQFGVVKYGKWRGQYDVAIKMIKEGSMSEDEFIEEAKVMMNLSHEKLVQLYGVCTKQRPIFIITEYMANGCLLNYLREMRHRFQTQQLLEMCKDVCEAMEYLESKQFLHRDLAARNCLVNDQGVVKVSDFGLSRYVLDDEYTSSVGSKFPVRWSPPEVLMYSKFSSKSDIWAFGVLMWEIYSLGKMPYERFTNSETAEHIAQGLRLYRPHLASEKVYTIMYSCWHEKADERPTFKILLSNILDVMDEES

| Structure (SMILES) | DC50 [nM] |
| --- | --- |
| Cc1cc(-c2n[nH]c3ncc(-c4ccc(N5CCN(C6CC(c7ccc([C@@H]8CCC(=O)NC8=O)cc7)C6)CC5)cc4)cc23)ccc1[C@@H](C)NC(=O)c1noc(C(C)(C)C)n1 (stereo partly drawn) [Example 209, 5-(tert-butyl)-N—((R)-1-(4-(5-(4-(4-((1R,3s)-3-(4-((S)-2,6-dioxopiperidin-3-yl)phenyl)cyclobutyl)piperazin-1-yl)phenyl)-1H-pyrazolo[3,4-b]pyridin-3-yl)-2-methylphenyl)ethyl)-1,2,4-oxadiazole-3-carboxamide] | 13.6 |
| Cc1cc(-c2n[nH]c3ncc(-c4ccc(N5CCN(CC(F)(F)c6ccc(C7CCC(=O)NC7=O)cc6)CC5)cc4)cc23)ccc1[C@@H](C)NC(=O)c1nc(C(C)(C)C)no1 (stereo partly drawn) [Example 188, 3-(tert-butyl)-N-((1R)-1-(4-(5-(4-(4-(2-(4-(2,6-dioxopiperidin-3-yl)phenyl)-2,2-difluoroethyl)piperazin-1-yl)phenyl)-1H-pyrazolo[3,4-b]pyridin-3-yl)-2-methylphenyl)ethyl)-1,2,4-oxadiazole-5-carboxamide] | 9.91 |
| Cc1cc(-c2n[nH]c3ncc(-c4ccc(N5CCN(CC6CCN(c7ccc(N8CCC(=O)NC8=O)cc7)CC6)CC5)cc4)cc23)ccc1[C@@H](C)NC(=O)c1nc(C2(C)CC2)no1 [Example 213, (R)—N-(1-(4-(5-(4-(4-((1-(4-(2,4-dioxotetrahydropyrimidin-1(2H)-yl)phenyl)piperidin-4-yl)methyl)piperazin-1-yl)phenyl)-1H-pyrazolo[3,4-b]pyridin-3-yl)-2-methylphenyl)ethyl)-3-(1-methylcyclopropyl)-1,2,4-oxadiazole-5-carboxamide] | 5.04 |
| Cc1cc(-c2n[nH]c3ncc(-c4ccc(N5CCN(CC(C)c6ccc(N7CCC(=O)NC7=O)cc6)CC5)cc4)cc23)ccc1[C@@H](C)NC(=O)c1noc(C(C)(C)C)n1 (stereo partly drawn) [Example 160, 5-(tert-butyl)-N-((1R)-1-(4-(5-(4-(4-(2-(4-(2,4-dioxotetrahydropyrimidin-1(2H)-yl)phenyl)propyl)piperazin-1-yl)phenyl)-1H-pyrazolo[3,4-b]pyridin-3-yl)-2-methylphenyl)ethyl)-1,2,4-oxadiazole-3-carboxamide] | 10.6 |
| Cc1cc(-c2n[nH]c3ncc(-c4ccc(N5CC6CC5CN6CCc5ccc(C6CCC(=O)NC6=O)c(C)n5)cn4)cc23)ccc1[C@@H](C)NC(=O)c1noc(C(C)(C)C)n1 (stereo partly drawn) [Example 170, 5-(tert-butyl)-N-((1R)-1-(4-(5-(5-(5-(2-(5-(2,6-dioxopiperidin-3-yl)-6-methylpyridin-2-yl)ethyl)-2,5-diazabicyclo[2.2.1]heptan-2-yl)pyridin-2-yl)-1H-pyrazolo[3,4-b]pyridin-3-yl)-2-methylphenyl)ethyl)-1,2,4-oxadiazole-3-carboxamide] | 4.77 |

Next, values leading:

| DC50 [nM] | Structure (SMILES) |
| --- | --- |
| 4.76 | Cc1cc(-c2n[nH]c3ncc(-c4ccc(N5CCN(CCC6CCN(c7ccc(C8CCC(=O)NC8=O)c(F)c7)CC6)CC5)cc4)cc23)ccc1CNC(=O)c1noc(C(C)(C)C)n1 (stereo not shown) [Example 48, 5-(tert-butyl)-N-(4-(5-(4-(4-(2-(1-(4-(2,6-dioxopiperidin-3-yl)-3-fluorophenyl)piperidin-4-yl)ethyl)piperazin-1-yl)phenyl)-1H-pyrazolo[3,4-b]pyridin-3-yl)-2-methylbenzyl)-1,2,4-oxadiazole-3-carboxamide] |
| 1.79 | Cc1cc(-c2n[nH]c3ncc(-c4ccc(N5CCN(CCc6ccc([C@@H]7CCC(=O)NC7=O)cc6)CC5)cc4)cc23)ccc1[C@@H](C)NC(=O)c1noc(C(C)(C)C)n1 [Example 112, 5-(tert-butyl)-N—((R)-1-(4-(5-(4-(4-(4-((S)-2,6-dioxopiperidin-3-yl)phenethyl)piperazin-1-yl)phenyl)-1H-pyrazolo[3,4-b]pyridin-3-yl)-2-methylphenyl)ethyl)-1,2,4-oxadiazole-3-carboxamide] |
| 4.62 | Cc1cc(-c2n[nH]c3ncc(-c4ccc(C5CCN(CCCOc6ccc(NC7CCC(=O)NC7=O)c(C)c6)CC5)cc4)cc23)ccc1CNC(=O)c1nc(C(C)(C)C)no1 (stereo not shown) [Example 24, 3-(tert-butyl)-N-(4-(5-(4-(1-(3-(4-((2,6-dioxopiperidin-3-yl)amino)-3-methylphenoxy)propyl)piperidin-4-yl)phenyl)-1H-pyrazolo[3,4-b]pyridin-3-yl)-2-methylbenzyl)-1,2,4-oxadiazole-5-carboxamide] |
| 4.03 | Cc1cc(-c2n[nH]c3ncc(-c4ccc(C5CCN(CC6CCN(c7ccc(N8CCC(=O)NC8=O)cc7)CC6)CC5)nc4)cc23)ccc1[C@@H](C)NC(=O)c1noc(C(C)(C)C)n1 [Example 71, (R)-5-(tert-butyl)-N-(1-(4-(5-(6-(1-((1-(4-(2,4-dioxotetrahydropyrimidin-1(2H)-yl)phenyl)piperidin-4-yl)methyl)piperidin-4-yl)pyridin-3-yl)-1H-pyrazolo[3,4-b]pyridin-3-yl)-2-methylphenyl)ethyl)-1,2,4-oxadiazole-3-carboxamide] |
| 2.94 | Cc1cc(-c2n[nH]c3ncc(-c4ccc(C5CCN(CCc6ccc(N7CCC(=O)NC7=O)cc6)CC5)cc4)cc23)ccc1CNC(=O)c1noc(C(C)(C)C)n1 [Example 6, 5-(tert-butyl)-N-(4-(5-(4-(1-(4-(2,4-dioxotetrahydropyrimidin-1(2H)-yl)phenethyl)piperidin-4-yl)phenyl)-1H-pyrazolo[3,4-b]pyridin-3-yl)-2-methylbenzyl)-1,2,4-oxadiazole-3-carboxamide] |
| 3.06 | Cc1cc(-c2n[nH]c3ncc(-c4ccc(N5CCN(CC(F)(F)c6ccc(C7CCC(=O)NC7=O)cn6)CC5)cc4)cc23)ccc1[C@@H](C)NC(=O)c1noc(C(C)(C)C)n1 (stereo partly drawn) [Example 193, 5-(tert-butyl)-N-((1R)-1-(4-(5-(4-(4-(2-(5-(2,6-dioxopiperidin-3-yl)pyridin-2-yl)-2,2-difluoroethyl)piperazin-1-yl)phenyl)-1H-pyrazolo[3,4-b]pyridin-3-yl)-2-methylphenyl)ethyl)-1,2,4-oxadiazole-3-carboxamide] |

Same assay, conditions: TMD8, maximum percentage of inhibition (degradation)

| Dmax [%] | Structure (SMILES) |
| --- | --- |
| 97.3 | Cc1cc(-c2n[nH]c3ncc(-c4ccc(C5CCN(CCCOc6ccc(NC7CCC(=O)NC7=O)c(C)c6)CC5)cc4)cc23)ccc1CNC(=O)c1nc(C(C)(C)C)no1 (stereo not shown) [Example 24, 3-(tert-butyl)-N-(4-(5-(4-(1-(3-(4-((2,6-dioxopiperidin-3-yl)amino)-3-methylphenoxy)propyl)piperidin-4-yl)phenyl)-1H-pyrazolo[3,4-b]pyridin-3-yl)-2-methylbenzyl)-1,2,4-oxadiazole-5-carboxamide] |
| 97 | Cc1cc(-c2n[nH]c3ncc(-c4ccc(C5CCN(CCc6ccc(N7CCC(=O)NC7=O)cc6)CC5)cc4)cc23)ccc1CNC(=O)c1noc(C(C)(C)C)n1 [Example 6, 5-(tert-butyl)-N-(4-(5-(4-(1-(4-(2,4-dioxotetrahydropyrimidin-1(2H)-yl)phenethyl)piperidin-4-yl)phenyl)-1H-pyrazolo[3,4-b]pyridin-3-yl)-2-methylbenzyl)-1,2,4-oxadiazole-3-carboxamide] |
